Literature values, collected in patent US12201623B1, “Composition and method for preventing long-term COVID-19 morbidity” (priority 2021, dated 2025).

Tested on: SARS-COV-2
Details: peripheral blood monocytes purified from healthy volunteers

| Structure (SMILES) | SARS-COV-2 replication |
| --- | --- |
| COC1=C(OC)C(=O)C(CCCCCCCCCC[P+](c2ccccc2)(c2ccccc2)c2ccccc2)=C(C)C1=O [MitoQ] | suppressed |
| CC(=O)N[C@@H](CS)C(=O)O [NAC] | suppressed |
